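The compound was tested at five concentrations on cells cultured in 96-well plates, with a 48-hour exposure period. GI50: concentration for 50% inhibition of growth. TGI is the concentration that stops growth completely.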
Experiments:
Assay in all cases: NCI anticancer screen, dose series, 48 h
SK-MEL-5 melanoma = test system: SK-MEL-5 melanoma
BT-549 breast = test system: BT-549 breast
KM12 colon = test system: KM12 colon
SN12C renal = test system: SN12C renal
SNB-19 CNS = test system: SNB-19 CNS
UACC-257 melanoma = test system: UACC-257 melanoma
HCC-2998 colon = test system: HCC-2998 colon
LOX IMVI melanoma = test system: LOX IMVI melanoma
SK-MEL-2 melanoma = test system: SK-MEL-2 melanoma
SF-295 CNS = test system: SF-295 CNS
OVCAR-4 ovarian = test system: OVCAR-4 ovarian
HOP-62 NSCLC = test system: HOP-62 NSCLC
MOLT-4 leukemia = test system: MOLT-4 leukemia
OVCAR-8 ovarian = test system: OVCAR-8 ovarian
NCI-H23 lung = test system: NCI-H23 lung
HCT-116 colon = test system: HCT-116 colon
CAKI-1 renal = test system: CAKI-1 renal
NCI-H226 lung = test system: NCI-H226 lung
UO-31 renal = test system: UO-31 renal
SF-539 CNS = test system: SF-539 CNS
MCF7 breast = test system: MCF7 breast
COLO 205 colon = test system: COLO 205 colon
NCI-H522 lung = test system: NCI-H522 lung
SW-620 colon = test system: SW-620 colon
786-0 renal = test system: 786-0 renal
M14 melanoma = test system: M14 melanoma
SNB-75 CNS = test system: SNB-75 CNS
MDA-MB-231 breast = test system: MDA-MB-231 breast

With `O=C(NN1C(=O)CSC12CCCCC2)c1[nH]c2ccc(F)cc2c1-c1ccccc1` the GI50 (SK-MEL-5 melanoma) was 41.4 µM, the TGI (SK-MEL-5 melanoma) was over 100 µM and the GI50 (BT-549 breast) was 33.8 µM. For the same molecule, the TGI (BT-549 breast) was over 100 µM, the GI50 (KM12 colon) was 17.1 µM and the TGI (KM12 colon) was 32.6 µM. The GI50 (SN12C renal) was 18.2 µM, the TGI (SN12C renal) was 37.5 µM and the GI50 (SNB-19 CNS) was 19.8 µM. For the same molecule, the TGI (SNB-19 CNS) was 44.2 µM, the GI50 (UACC-257 melanoma) was 23.3 µM and the TGI (UACC-257 melanoma) was 56.9 µM. For the same molecule, the GI50 (HCC-2998 colon) was 34.8 µM, the TGI (HCC-2998 colon) was 92.5 µM and the GI50 (LOX IMVI melanoma) was 24.1 µM. For the same molecule, the TGI (LOX IMVI melanoma) was 61.9 µM, the GI50 (SK-MEL-2 melanoma) was 34.6 µM and the TGI (SK-MEL-2 melanoma) was over 100 µM. The GI50 (SF-295 CNS) was 22.2 µM, the TGI (SF-295 CNS) was 40 µM and the GI50 (OVCAR-4 ovarian) was 22.9 µM. The TGI (OVCAR-4 ovarian) was 70.9 µM, the GI50 (HOP-62 NSCLC) was 19.2 µM and the TGI (HOP-62 NSCLC) was 41.2 µM. It also gave a GI50 (MOLT-4 leukemia) of 13.9 µM, a TGI (MOLT-4 leukemia) of 41.7 µM and a GI50 (OVCAR-8 ovarian) of 18 µM. It also gave a TGI (OVCAR-8 ovarian) of 31.9 µM, a GI50 (NCI-H23 lung) of 18.4 µM and a TGI (NCI-H23 lung) of 50.9 µM. For the same molecule, the GI50 (HCT-116 colon) was 16.7 µM, the TGI (HCT-116 colon) was 31.5 µM and the GI50 (CAKI-1 renal) was 31.9 µM. It also gave a TGI (CAKI-1 renal) of over 100 µM, a GI50 (NCI-H226 lung) of 28.1 µM and a TGI (NCI-H226 lung) of 77 µM. It also gave a GI50 (UO-31 renal) of 27.8 µM, a TGI (UO-31 renal) of 80.9 µM and a GI50 (SF-539 CNS) of 21.8 µM. The TGI (SF-539 CNS) was 37.2 µM, the GI50 (MCF7 breast) was 19.4 µM and the TGI (MCF7 breast) was 37.3 µM. It also gave a GI50 (COLO 205 colon) of 36.8 µM, a TGI (COLO 205 colon) of over 100 µM and a GI50 (NCI-H522 lung) of 19.1 µM. For the same molecule, the TGI (NCI-H522 lung) was 58.7 µM, the GI50 (SW-620 colon) was 26.6 µM and the TGI (SW-620 colon) was 87.5 µM. For the same molecule, the GI50 (786-0 renal) was 26 µM, the TGI (786-0 renal) was 49.8 µM and the GI50 (M14 melanoma) was 38.2 µM. It also gave a TGI (M14 melanoma) of over 100 µM, a GI50 (SNB-75 CNS) of 18.5 µM and a TGI (SNB-75 CNS) of 36.2 µM. For the same molecule, the GI50 (MDA-MB-231 breast) was 18.8 µM.

From PubChem BioAssay (NCI)
